According to PMC5247395 (EJNMMI Research, 2017):

How the values were obtained:
[1] = test system: PC-3 PIP/flu tumor-bearing mice; assay: PET/CT and SPECT/CT imaging of PC-3 PIP/flu tumor-bearing mice; format: in vivo; conditions: 2 h after injection
Experimental: PET/CT scans were performed using a small-animal bench-top PET/CT scanner (G8, Sofie Biosciences, Culver City, California, USA, and Perkin Elmer, Massachusetts, USA) and a small-animal SPECT/CT scanner (NanoSPECT/CT^TM, Mediso Medical Imaging Systems, Budapest, Hungary), respectively (Additional file 1). During the scans, the mice were anesthetized with a mixture of isoflurane and oxygen.
The PET scans were followed by a CT of 1.5 min. The SPECT scan of 45 min duration was performed 2 h after injection of ^177Lu-PSMA-617 (~50 MBq, 1 nmol) followed by a CT of 7.5 min. Reconstruction of the acquired data was performed by using the software of the respective scanner.
All images were prepared using VivoQuant post-processing software (version 2.10, inviCRO Imaging Services and Software, Boston USA). A Gauss post-reconstruction filter (full width at half maximum = 1 mm) was applied to the images, which were presented with the scale adjusted to allow visualization of the most important organs and tissues, usually by cutting 0.5–1% of the lower scale.
PET/CT scans were performed with a small-animal bench-top PET/CT scanner (G8, Sofie Biosciences, Culver City, California, U.S. and Perkin Elmer, Massachusetts, U.S.). The energy window ranged from 150 keV to 650 keV. […]

[2] = n-octanol/PBS distribution coefficient (shake-flask); format: physicochemical; conditions: n-octanol/PBS pH 7.4, shake-flask
Experimental: The distribution coefficients (logD values) of the radioligands were determined by a shake-flask method using liquid-liquid extraction followed by phase separation, as previously reported (Additional file 1). In brief, the PSMA ligands were labeled at a specific activity of 5 MBq/nmol. […] The vials were vortexed vigorously for 1 min and then centrifuged for 6 min for phase separation. The concentration of radioactivity in a defined volume of each layer was measured in a γ-counter (Perkin Elmer, Wallac Wizard 1480). The distribution coefficients were expressed as the logarithm of the ratio of counts per minute (cpm) measured in the n-octanol phase to the cpm measure in the PBS phase. The values are reported as the average of at least three independent measurements (± standard deviation, SD), each performed with five replicates. Data were analyzed for significance using a one-way ANOVA test (GraphPad Prism software, version 7). A p value of <0.05 was considered as statistically significant.

[3] = test system: PC-3 PIP/flu tumor-bearing mice; assay: Biodistribution in PC-3 PIP/flu tumor-bearing mice; conditions: i.v.; for PC-3 flu Tumor: PSMA^neg xenograft; for PC-3 PIP Tumor: PSMA^pos xenograft
Experimental: In vivo experiments were approved by the local veterinarian department and conducted in accordance with the Swiss law of animal protection. All mice were obtained from Charles River Laboratories (Sulzfeld, Germany), at the age of 5–6 weeks. Female, athymic nude Balb/c mice were subcutaneously inoculated with PC-3 PIP cells (6 × 10^6 cells in 100 μL Hank’s balanced salt solution (HBSS) with Ca^2+/Mg^2+) on the right shoulder and with PC-3 flu cells (5 × 10^6 cells in 100 μL HBSS with Ca^2+/Mg^2+) on the left shoulder 2 weeks before the performance of the experiments.
Mice were sacrificed at different time points post injection (p.i.) of the radioligands. Selected tissues and organs were collected, weighed and measured using a γ-counter. The results were decay-corrected and listed as a percentage of the injected activity per gram of tissue mass (% IA/g).

PSMA = molecular target: T1, PSMA (Homo sapiens, UniProt Q04609); assay: Saturation binding assay on PC-3 PIP cells (PSMA affinity, KD)
T1 construct: expressed in transfected cells; host or cells: PC-3 PIP cells (PSMA-positive subline of human PC-3 prostate cancer cells), provided by Prof; Martin Pomper, Johns Hopkins
T1 sequence (Q04609 whole entry): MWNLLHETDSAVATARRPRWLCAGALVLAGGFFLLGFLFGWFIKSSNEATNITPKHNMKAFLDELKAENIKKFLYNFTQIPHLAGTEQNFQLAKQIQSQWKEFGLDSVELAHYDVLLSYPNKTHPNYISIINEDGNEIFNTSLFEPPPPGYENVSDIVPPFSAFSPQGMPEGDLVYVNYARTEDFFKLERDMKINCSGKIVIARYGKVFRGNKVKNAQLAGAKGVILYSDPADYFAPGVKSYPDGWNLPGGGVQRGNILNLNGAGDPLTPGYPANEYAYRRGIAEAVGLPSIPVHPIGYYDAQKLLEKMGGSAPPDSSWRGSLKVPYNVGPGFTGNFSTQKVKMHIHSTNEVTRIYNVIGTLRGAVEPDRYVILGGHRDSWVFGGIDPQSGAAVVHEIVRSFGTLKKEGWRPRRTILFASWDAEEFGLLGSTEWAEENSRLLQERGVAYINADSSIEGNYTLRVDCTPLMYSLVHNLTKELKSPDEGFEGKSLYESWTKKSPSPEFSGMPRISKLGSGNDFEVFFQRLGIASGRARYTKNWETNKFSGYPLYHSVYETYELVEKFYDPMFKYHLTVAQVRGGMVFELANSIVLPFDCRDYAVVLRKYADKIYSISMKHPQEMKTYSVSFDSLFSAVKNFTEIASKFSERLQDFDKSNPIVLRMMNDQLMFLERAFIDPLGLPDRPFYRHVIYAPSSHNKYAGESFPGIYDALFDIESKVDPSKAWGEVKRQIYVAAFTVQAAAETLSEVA
Experimental: Determination of the PSMA affinity was performed by saturation binding assays using PC-3 PIP cells and different concentrations of ^nat/44Sc-, ^nat/177Lu-, ^nat/68Ga-PSMA-617, or ^nat/68Ga-PSMA-11, respectively (Additional file 1).
Determination of the KD values was performed by saturation binding assays using PSMA^pos PC-3 PIP cells. After successful radiolabeling of the PSMA ligands, a 2.5-fold molar excess of the corresponding cold metal was added and the reaction mixture was incubated for another 10 min at 95 °C. Quality control was performed again after reaction of the radioligands with the “cold” metal as described in the main manuscript.
The cells were seeded in 48-well-plates (8 x 10^5 cells in 500 uL RPMI medium/well) allowing adhesion and growth overnight at 37 °C and 5% CO2. For the entire experiment, the well-plates were kept on ice. After removal of the supernatant, the cells were washed once with ice-cold PBS pH 7.4 prior to the addition of different concentrations (1 nM-2 µM) of either ^nat/44Sc-, ^nat/177Lu-, ^nat/67/68Ga-PSMA-617 or ^nat/67/68Ga-PSMA-11 in ice-cold RPMI medium without supplements. For the determination of non-specific binding, cell samples were incubated with 2-phosphonomethyl pentanedioic acid (2-PMPA, 200 μM). The well-plates were incubated for 30 min at 4 °C. Then, the supernatants were removed and the cells washed twice with ice-cold PBS followed by addition of NaOH (1 M, 600 µL) to each well. The cell suspensions were transferred to 4 mL tubes for measurement in a γ-counter (Wallac Wizard 1480, Perkin Elmer). The KD values were determined by plotting specific-binding (total binding minus unspecific binding) against the molar concentration of the added radioligands followed by nonlinear regression analysis using GraphPad Prism 7 software.

O=C([O-])CN(CCN(CC(=O)[O-])Cc1cc(CCC(=O)NCCCCCC(=O)NCCCC[C@H](NC(=O)N[C@@H](CCC(=O)O)C(=O)O)C(=O)O)ccc1[O-])Cc1cc(CCC(=O)O)ccc1[O-].[68Ga+3] [^68Ga-PSMA-11]
accumulation in the kidneys on PET/CT images vs. the other radioligands [1]: significantly higher extent | LogD values [2]: −4.82 ± 0.07 | Blood ([3]; 15 min p.i.): 5.05 ± 0.58 % IA/g | Bone ([3]; 15 min p.i.): 1.85 ± 0.20 % IA/g | Heart ([3]; 15 min p.i.): 2.45 ± 0.29 % IA/g | Intestines ([3]; 15 min p.i.): 1.42 ± 0.07 % IA/g | Kidneys ([3]; 15 min p.i.): 74.7 ± 7.02 % IA/g | Liver ([3]; 15 min p.i.): 2.00 ± 0.32 % IA/g | Lung ([3]; 15 min p.i.): 3.87 ± 0.22 % IA/g | Muscle ([3]; 15 min p.i.): 1.21 ± 0.11 % IA/g | Salivary glands ([3]; 15 min p.i.): 2.73 ± 0.27 % IA/g | Spleen ([3]; 15 min p.i.): 5.33 ± 1.78 % IA/g | Stomach ([3]; 15 min p.i.): 1.42 ± 0.15 % IA/g | PC-3 flu Tumor ([3]; 15 min p.i.): 2.19 ± 0.05 % IA/g | PC-3 PIP Tumor ([3]; 15 min p.i.): 31.5 ± 13.0 % IA/g | Blood ([3]; 30 min p.i.): 2.55 ± 0.72 % IA/g | Bone ([3]; 30 min p.i.): 0.81 ± 0.14 % IA/g | Heart ([3]; 30 min p.i.): 1.31 ± 0.19 % IA/g | Intestines ([3]; 30 min p.i.): 1.20 ± 0.24 % IA/g | Kidneys ([3]; 30 min p.i.): 86.7 ± 14.6 % IA/g | Liver ([3]; 30 min p.i.): 1.55 ± 0.04 % IA/g | Lung ([3]; 30 min p.i.): 2.23 ± 0.33 % IA/g | Muscle ([3]; 30 min p.i.): 0.67 ± 0.06 % IA/g | Salivary glands ([3]; 30 min p.i.): 1.59 ± 0.18 % IA/g | Spleen ([3]; 30 min p.i.): 4.76 ± 1.13 % IA/g | Stomach ([3]; 30 min p.i.): 0.85 ± 0.19 % IA/g | PC-3 flu Tumor ([3]; 30 min p.i.): 1.04 ± 0.17 % IA/g | PC-3 PIP Tumor ([3]; 30 min p.i.): 49.3 ± 4.97 % IA/g | Blood ([3]; 2 h p.i.): 0.08 ± 0.01 % IA/g | Bone ([3]; 2 h p.i.): 0.06 ± 0.00 % IA/g | Heart ([3]; 2 h p.i.): 0.18 ± 0.03 % IA/g | Intestines ([3]; 2 h p.i.): 0.95 ± 0.86 % IA/g | Kidneys ([3]; 2 h p.i.): 58.8 ± 7.62 % IA/g | Liver ([3]; 2 h p.i.): 0.56 ± 0.04 % IA/g | Lung ([3]; 2 h p.i.): 0.31 ± 0.10 % IA/g | Muscle ([3]; 2 h p.i.): 0.06 ± 0.01 % IA/g | Salivary glands ([3]; 2 h p.i.): 0.39 ± 0.01 % IA/g | Spleen ([3]; 2 h p.i.): 2.18 ± 0.38 % IA/g | Stomach ([3]; 2 h p.i.): 0.35 ± 0.17 % IA/g | PC-3 flu Tumor ([3]; 2 h p.i.): 0.13 ± 0.02 % IA/g | PC-3 PIP Tumor ([3]; 2 h p.i.): 40.0 ± 2.55 % IA/g | Kd (PSMA; 30 min at 4 °C, saturation binding): 0.087 ± 0.027 µM | Relative PSMA-binding affinity (PSMA; inverse molar ratio of average KD values, ^177Lu-PSMA-617 set to 1): 0.4
